According to ChEMBL document CHEMBL1146620, “Structure-activity relationships of the peptide deformylase inhibitor BB-3497: modification of the methylene spacer and the P1' side chain” (Bioorg Med Chem Lett, 2003):
In brackets after ≈: the same amount, converted by molar mass.

Legend:
Escherichia coli = test: Antibacterial activity against Escherichia coli; assay type: functional
Staphylococcus capitis = test: Antibacterial activity against Staphylococcus capitis; assay type: functional
[1] = molecular target: Peptide deformylase (Escherichia coli) (UniProt P0A6K3); test: Inhibition against Escherichia coli Peptide deformylase was measured at a concentration of 1 uM
Sequence of Peptide deformylase (Escherichia coli) (P0A6K3 whole entry, looked up): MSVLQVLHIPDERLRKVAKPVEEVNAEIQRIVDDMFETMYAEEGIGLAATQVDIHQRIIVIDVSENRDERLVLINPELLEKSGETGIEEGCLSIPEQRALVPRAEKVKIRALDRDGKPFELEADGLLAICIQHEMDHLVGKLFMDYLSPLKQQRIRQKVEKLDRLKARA

Row | MIC (Escherichia coli) | MIC (Staphylococcus capitis) | inhibition [1] | SMILES
1 | 12.5 µM (≈ 4.44 µg/mL) | 12.5 µM (≈ 4.44 µg/mL) | – | CN(C)C(=O)[C@@H](NC(=O)[C@H](CC1CCCC1)CN(O)C=O)C(C)(C)C
2 | > 200 µM | > 200 µM | – | CCCCCCC[C@H](CN(O)C=O)C(=O)N[C@H](C(=O)N(C)C)C(C)(C)C
3 | > 200 µM | > 200 µM | 30% | CCCC[C@H](C(=O)N[C@H](C(=O)N(C)C)C(C)(C)C)N(O)C=O
4 | 25 µM (≈ 8.19 µg/mL) | 200 µM (≈ 65.5 µg/mL) | – | C=CCC[C@H](CN(O)C=O)C(=O)N[C@H](C(=O)N(C)C)C(C)(C)C
5 | > 200 µM | > 200 µM | – | CC(C)[C@H](CN(O)C=O)C(=O)N[C@H](C(=O)N(C)C)C(C)(C)C
6 | > 200 µM | > 200 µM | – | COc1ccc(C[C@H](CN(O)C=O)C(=O)N[C@H](C(=O)N(C)C)C(C)(C)C)cc1
7 | 50 µM (≈ 17.2 µg/mL) | 200 µM (≈ 68.7 µg/mL) | – | CC(C)CC[C@H](CN(O)C=O)C(=O)N[C@H](C(=O)N(C)C)C(C)(C)C
8 | 50 µM (≈ 16.3 µg/mL) | 100 µM (≈ 32.5 µg/mL) | – | CC#CC[C@H](CN(O)C=O)C(=O)N[C@H](C(=O)N(C)C)C(C)(C)C
9 | > 200 µM | > 200 µM | – | CCCC[C@@H](CN(O)C=O)C(=O)N[C@H](C(=O)N(C)C)C(C)(C)C
10 | > 200 µM | > 200 µM | – | CCCCCCCC[C@H](CN(O)C=O)C(=O)N[C@H](C(=O)N(C)C)C(C)(C)C
11 | 100 µM (≈ 35.7 µg/mL) | > 200 µM | – | CCCCCC[C@H](CN(O)C=O)C(=O)N[C@H](C(=O)N(C)C)C(C)(C)C
12 | > 200 µM | > 200 µM | – | CCCC[C@H](CCN(O)C=O)C(=O)N[C@H](C(=O)N(C)C)C(C)(C)C
13 | 100 µM (≈ 32.9 µg/mL) | 200 µM (≈ 65.9 µg/mL) | – | CC(C)C[C@H](CN(O)C=O)C(=O)N[C@H](C(=O)N(C)C)C(C)(C)C
14 | 25 µM (≈ 8.59 µg/mL) | 25 µM (≈ 8.59 µg/mL) | – | CCCCC[C@H](CN(O)C=O)C(=O)N[C@H](C(=O)N(C)C)C(C)(C)C
15 | > 200 µM | > 200 µM | – | CCCC[C@@H](C(=O)N[C@H](C(=O)N(C)C)C(C)(C)C)C(C)N(O)C=O (some centres undefined)
16 | > 200 µM | > 200 µM | – | CN(C)C(=O)[C@@H](NC(=O)[C@@H](CN(O)C=O)c1ccc(Cl)cc1)C(C)(C)C
17 | 50 µM (≈ 15.7 µg/mL) | > 200 µM | – | C=CC[C@H](CN(O)C=O)C(=O)N[C@H](C(=O)N(C)C)C(C)(C)C
18 | 25 µM (≈ 9.09 µg/mL) | 50 µM (≈ 18.2 µg/mL) | – | CN(C)C(=O)[C@@H](NC(=O)[C@H](Cc1ccccc1)CN(O)C=O)C(C)(C)C
19 | 25 µM (≈ 8.69 µg/mL) | > 200 µM | – | CCSC[C@H](CN(O)C=O)C(=O)N[C@H](C(=O)N(C)C)C(C)(C)C
20 | 50 µM (≈ 18.5 µg/mL) | 25 µM (≈ 9.24 µg/mL) | – | CN(C)C(=O)[C@@H](NC(=O)[C@H](CC1CCCCC1)CN(O)C=O)C(C)(C)C
21 | 50 µM (≈ 15.8 µg/mL) | > 200 µM | – | CCC[C@H](CN(O)C=O)C(=O)N[C@H](C(=O)N(C)C)C(C)(C)C
22 | > 200 µM | > 200 µM | – | CN(C)C(=O)[C@@H](NC(=O)[C@@H](CN(O)C=O)CN1CCCCC1)C(C)(C)C
23 | > 200 µM | > 200 µM | – | C[C@H](CN(O)C=O)C(=O)N[C@H](C(=O)N(C)C)C(C)(C)C
24 | 200 µM (≈ 60.3 µg/mL) | > 200 µM | – | CC[C@H](CN(O)C=O)C(=O)N[C@H](C(=O)N(C)C)C(C)(C)C
25 | > 200 µM | > 200 µM | 20% | CCCC[C@@H](C(=O)N[C@H](C(=O)N(C)C)C(C)(C)C)N(O)C=O
26 | > 200 µM | > 200 µM | – | CN(C)C(=O)[C@@H](NC(=O)[C@@H](CN(O)C=O)C1CCCC1)C(C)(C)C
